According to patent publication US20050107959A1, “Screening method for evaluation of bilayer-drug interaction in liposomal compositions” (priority 2003, published 2005):

Experiment: Differential scanning calorimetry (VP-DSC) of DSPC liposomes (MLVs) with drugs
Type: physicochemical
Design: ΔHcal / ΔHvH / ΔHv: unit not given here
Details: for Interaction of the drug with the lipid bilayer (thermogram deviation from DSPC control): FIGS. 1A-1D, pH 3.6, DSPC/drug mixture vs DSPC control; for ΔHcal: calorimetric phase transition enthalpy; for ΔHcal / Cpmax / ΔTm½ / ΔT½: drug-to-lipid 1:5; for CU: cooperativity unit = ΔHvH/ΔHcal; for Tm: drug-to-lipid mole ratio 1:5; for Cpmax: heat capacity at phase transition peak; for ΔTm½ / ΔT½: transition peak width at half-height; for ΔHvH / ΔHv: van't Hoff's enthalpy calculated from DSC measurements; for Coop: cooperativity calculated from DSC measurements
Source text: Differential scanning calorimetry (DSC) is a method known in the art used to measure the amount of energy (as heat) absorbed or released by a sample as it is heated, cooled, or held at a constant temperature. As used herein, the term “DSC measurements” further includes calculations using a measured feature of the sample. An exemplary method of measuring DSC utilizes a differential scanning calorimeter. Any calorimeter is suitable as long as the temperature range of the calorimeter is appropriate for the sample measurements. An exemplary calorimeter is the VP-DSC differential scanning calorimeter available from MicroCal (Northampton, Mass., USA). Typical applications using the differential scanning calorimeter include determination of melting point temperature and/or the heat of melting, measurement of the glass transition temperature, curing and crystallization studies, and identification of phase transformations.
In the embodiment using a differential scanning calorimeter for measuring the thermodynamic properties of a lipid suspension, the heat flow into a sample is usually contained in a sample cell and measured differentially, i.e. by comparing the heat flow of the sample to the heat flow into an reference cell containing an equal volume of water or the aqueous component of the sample. The heat flow may be considered as the amount of heat (q) supplied per unit of time (t), or q/t. Typically, both cells sit inside a metal jacket with a known (calibrated) heat resistance (K). The temperature of the calorimeter is raised linearly with time (scanned), where the heating rate (β=dT/dt) of the cells are kept constant and consistent with each other. […] The temperature may be controlled manually or automatically. […] Heat flows into the two cells by conduction from a heat source such as a radiator. The heat flow into the sample cell is larger due to the additional heat capacity (Cp) of the sample during the course of the phase transition. Heat capacity refers to the heat flow divided by the heating rate or Cp=q/ΔT, where q is heat, and ΔT is temperature increase. The difference in heat flow (dq/dt) induces a temperature difference (dT) between the sample and the reference cells. This temperature difference is measured using any appropriate sensor, such as a thermocouple, and a signal is generated representative of the difference.
In this figure, in a heating scan, an endothermic event results in a positive (upward) deviation from the baseline. […] The melting temperature is seen on the heat flow plot as a peak as heat is absorbed by the sample until the phase transition is completed. As will be appreciated by those of skill in the art, the main phase transition extends over a temperature range, although this peak is typically very sharp for most vesicle-forming lipids, such as DSPC, the Tm can be reported as the onset of the transition, as the midpoint of the transition, the peak temperature, or any suitable point as long as the parameters are defined. […] It will be appreciated that the exact percent of phase transition is not important as long as it is defined. Where a ratio is used, it is desirable to use the same ratio for each sample to aid in comparison between the samples. In the studies reported herein, the Tm is reported as the maximum peak of the transition range.
The latent heat of melting, or the calorimetric phase transition enthalpy, (ΔHcal) can be determined by first determining the area (A) under the peak according to the following formula: A=(heat in calories)(temperature in Kelvin)/(time in seconds)(mass in moles).

[1] = pH 3.6, scan 20° C./hour, maximum peak of main phase transition

| Compound | Interaction of the drug with the lipid bilayer (thermogram deviation from DSPC control) | ΔHcal (pH 3.6) | CU (pH 3.6) | Tm (pH 3.6) [°C] | Tm [1] [°C] | Cpmax (pH 3.6) | ΔTm½ (pH 3.6) [°C] | ΔHvH (pH 3.6) | ΔHcal (pH 7.0) | Coop (pH 7.0) | Tm (pH 7.0) [°C] | Tm (pH 7.0, scan 20° C./hour) [C.] | Cpmax (pH 7.0) | ΔT½ (pH 7.0) [°C] | ΔHv (pH 7.0) |
| --- | --- | --- | --- | --- | --- | --- | --- | --- | --- | --- | --- | --- | --- | --- | --- |
| CC[C@@]1(O)C(=O)OCc2c1cc1n(c2=O)Cc2c-1nc1ccccc1c2CCNC(C)C [CKD602] | some interaction | 11.81 | 45.9 | 54.7 | 54.6 | 7.5 | 1.27 | 542.3 | 11.2 | 117 | 54.43 | 54.43 | 17.2 | 0.42 | 1308 |
| O=C(O)c1cn(C2CC2)c2cc(N3CCNCC3)c(F)cc2c1=O [ciprofloxacin] |  | 9.98 | 38.6 | 55 | 54.9 | 4.5 |  | 385.6 |  |  |  |  |  |  |  |
| COc1cccc2c1C(=O)c1c(O)c3c(c(O)c1C2=O)C[C@@](O)(C(=O)CO)C[C@@H]3O[C@H]1C[C@H](N)[C@H](O)[C@H](C)O1 [doxorubicin] | weak interaction | 9.28 | 73.3 | 54.6 | 54.5 | 7.4 | 0.94 | 680.5 | 9.66 | 149 | 54.5 | 54.45 | 16.3 | 0.4 | 1437 |
| CC(=O)O[C@H]1C(=O)[C@@]2(C)[C@H]([C@H](OC(=O)c3ccccc3)[C@]3(O)C[C@H](OC(=O)[C@H](O)[C@@H](NC(=O)c4ccccc4)c4ccccc4)C(C)=C1C3(C)C)[C@]1(OC(C)=O)CO[C@@H]1C[C@@H]2O [paclitaxel] | significant interaction | 10.6 | 26.6 | 54.5 | 54.5 | 3.5 | 2.27 | 281.7 | 9.94 | 75 | 54.07 | 54.07 | 8.67 | 0.77 | 741 |
| CC[C@]1(O)C[C@H]2CN(CCc3c([nH]c4ccccc34)[C@@](C(=O)OC)(c3cc4c(cc3OC)N(C=O)[C@H]3[C@@](O)(C(=O)OC)[C@H](OC(C)=O)[C@]5(CC)C=CCN6CC[C@]43[C@@H]65)C2)C1 [vincristine] | some interaction | 12.77 | 37.2 | 54.7 | 54.6 | 7.1 | 1.42 | 474.9 | 11.65 | 43 | 53.93 | 53.93 | 6.81 | 1.38 | 496 |
